Assay results taken from patent US20190124918A1, “BIOFILM FORMATION INHIBITOR AND BIOFILM FORMATION INHIBITING COMPOSITION” (KAO CORPORATION, priority 2016, published 2019).

What was measured:
Type in all cases: cell-based
[1] = tested on: Pseudomonas PAO1 strain (ATCC 15692); assay: Amount of biofilm formed (crystal violet, OD570), 96-well microplate culture
Outline: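 PAO1 suspension in Mueller Hinton Broth (OD600 1/10^6) grown stationary 24 h at 30 °C with compounds dried from ethanol plus DMSO, final about 7–333 ppm or as listed. Biofilm stained with 0.1% crystal violet, ethanol-eluted, OD570; inhibition % = {1−(compound OD570/ethanol-control OD570)}×100.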

[2] = tested on: cooling water taken from a water cooling tower; assay: Aqueous system model (annular reactor): amount of biofilm formed on test pieces (OD570); conditions: Test Example 4; 15 ppm in cooling water, 30° C.; solvent control finally beyond 0.7
Method: (§1) Biofilm formation inhibitory activity of p-toluquinone (Tokyo Kasei) was evaluated by an aqueous system model using an annular reactor (Art Science Co., Ltd.) having a 100 mL-volume culture tank. In the culture tank of the annular reactor, a cylindrical rotating body rotating at a speed of 160 rounds per minute was installed. To the rotating body, 12 test pieces were attached in advance. These test pieces were taken out at predetermined time intervals and biofilm formed on the test pieces was quantified. From a water cooling tower provided on a building rooftop and actually used, cooling water was taken and supplied to the annular reactor culture vessel (maintained at 30° C.) at a flow rate of 10 mL per minute; at the same time, an ethanol solution (15 g/L) of p-toluquinone was separately supplied to the annular reactor culture vessel by a syringe pump YSP-201 (manufactured by YMC) at a flow rate of 10 μL per minute (p-toluquinone concentration in cooling water in the culture tank was 15 ppm). The test pieces (n=2) taken out from the culture tank at predetermined time intervals were stained with 0.1% crystal violet, thoroughly washed twice with physiological saline and recovered in ethanol (15 mL). The absorbance (OD570) was measured to obtain the amount of the biofilm formed. […] Thereafter, the number of bacteria cells was measured. […]

[3] = tested on: cooling water taken from a water cooling tower; assay: Aqueous system model (annular reactor): number of bacterial cells in water at inlet and outlet (R2A agar); conditions: Test Example 4; 15 ppm in cooling water; solvent control also about 10^4
Method: as §1

[4] = tested on: biofilm-forming microbe isolated from cooling water taken from a water cooling tower; assay: Biofilm inhibition test, quinone-based compound and organic solvent (OD570); conditions: alone or added as test solution in organic solvent, no addition gave 2.831
Method: A biofilm-forming microbe (microbe providing a OD570 value of 0.3 or more in the test for determining the amount of biofilm in the following section 4-3) isolated from cooling water taken from a water cooling tower was cultured in R2A culture medium at 30° C. for 16 hours while shaking. The turbidity (OD600) of the resultant culture solution was measured. The culture solution was diluted with R2A culture medium to prepare a suspension of 10^3 cfu/mL.
The suspension of a test microbe prepared in the above section 4-1) was added in individual wells of a 96 well microplate in an amount of 150 μL. Thereafter, the test solution prepared in the above section 2) was add and culture was initiated.
The 96 well microplate was subjected to stationary culture performed at 30° C. for 48 hours. The culture solution was removed and the resultant microplate was washed with water. Subsequently, each well was stained with 0.1% crystal violet and 200 μL of ethanol was added. The absorbance (OD570) was measured to obtain the amount of biofilm (BF) formed.

Q: How did the “The amount of the biofilm formed OD570” value ([1]; final concentration 7 ppm, EtOH control 0.9163) turn out when `CC1=CC(=O)C=CC1=O` [Compound a, p-Toluquinone] was run?
A: 0.7549

Q: What about the “BF inhibition (%)” value ([1]; final concentration 17 ppm) of the same compound?
A: 18.6%

Q: And the “The amount of the biofilm formed OD570” value ([1]; final concentration 20 ppm, EtOH control 0.9564)?
A: 0.8231

Q: What about the “BF inhibition (%)” value ([1]; final concentration 33 ppm) of the same compound?
A: 36.6%

Q: What about the “The amount of the biofilm formed OD570” value ([1]; final concentration 33 ppm, EtOH control 0.8974) of the same compound?
A: 0.7891

Q: What about the “BF inhibition (%)” value ([1]; final concentration 66 ppm) of the same compound?
A: 39.9%

Q: What about the “The amount of the biofilm formed OD570” value ([1]; final concentration 67 ppm, EtOH control 0.8853) of the same compound?
A: 0.7094

Q: What about the “BF inhibition (%)” value ([1]; final concentration 99 ppm) of the same compound?
A: 73.7%

Q: What about the “BF inhibition (%)” value ([1]; final concentration 116 ppm) of the same compound?
A: 86.3%

Q: And the “BF inhibition (%)” value ([1]; final concentration 132 ppm)?
A: 85.1%

Q: And the “The amount of the biofilm formed OD570” value ([1]; final concentration 200 ppm, EtOH control 0.9248)?
A: 0.7089

Q: What about the “The amount of the biofilm formed OD570” value ([1]; final concentration 333 ppm, EtOH control 0.9562) of the same compound?
A: 0.1222

Q: And the “biofilm formation (in words)” value ([1]; high concentration range of 200 ppm or more)?
A: inhibited

Q: What about the “biofilm formation (in words)” value ([1]; low concentration range of less than 200 ppm) of the same compound?
A: inhibited

Q: And the “amount of the biofilm formed (OD570)” value [2]?
A: ≤ 0.2

Q: What about the “number of bacterial cells at the inlet or outlet of the reactor” value [3] of the same compound?
A: about 10^4 cells/mL

Q: And the OD570 ([4]; Toluquinone 10 ppm)?
A: 0.119

Q: What about the OD570 ([4]; Toluquinone 20 ppm) of the same compound?
A: 0.083
